# Reference: the supplement of paper PMC11451515
# Test system: SEM cells
# Assay: cell viability relative to DMSO control; higher = less cytotoxic
# Details: 48 h
# How it was run: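 Viability values are per-plate percentages of DMSO wells, with background from cell-free wells. Library compounds in DMSO were pin-dosed, in an 11-point threefold series from 47 μM to 0.79 nM, onto NOMO1 or SEM (500 cells/well) or P12-Ichikawa (1000 cells/well) leukemia cells in 1536-well plates (5 μl). Those cells had been adapted for at least four passages in each medium, and CellTiter-Glo One luminescence was read after 48 h at 37°C.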
# [1] = HPLM + 10% dialyzed FBS, 0.000781 µM
# [2] = HPLM + 10% dialyzed FBS, 0.00234 µM
# [3] = HPLM + 10% dialyzed FBS, 0.00702 µM
# [4] = HPLM + 10% dialyzed FBS, 0.0211 µM
# [5] = HPLM + 10% dialyzed FBS, 0.0632 µM
# [6] = HPLM + 10% dialyzed FBS, 0.19 µM
# [7] = HPLM + 10% dialyzed FBS, 0.569 µM
# [8] = HPLM + 10% dialyzed FBS, 1.71 µM
# [9] = HPLM + 10% dialyzed FBS, 5.12 µM
# [10] = HPLM + 10% dialyzed FBS, 15.4 µM
# [11] = HPLM + 10% dialyzed FBS, 46.1 µM
# [12] = RPMI 5 mM glucose + 10% FBS, 0.000781 µM
# [13] = RPMI 5 mM glucose + 10% FBS, 0.00234 µM
# [14] = RPMI 5 mM glucose + 10% FBS, 0.00702 µM
# [15] = RPMI 5 mM glucose + 10% FBS, 0.0211 µM
# [16] = RPMI 5 mM glucose + 10% FBS, 0.0632 µM
# [17] = RPMI 5 mM glucose + 10% FBS, 0.19 µM
# [18] = RPMI 5 mM glucose + 10% FBS, 0.569 µM
# [19] = RPMI 5 mM glucose + 10% FBS, 1.71 µM
# [20] = RPMI 5 mM glucose + 10% FBS, 5.12 µM
# [21] = RPMI 5 mM glucose + 10% FBS, 15.4 µM
# [22] = RPMI 5 mM glucose + 10% FBS, 46.1 µM
# [23] = RPMI 5 mM glucose + 10% dialyzed FBS, 0.000781 µM
# [24] = RPMI 5 mM glucose + 10% dialyzed FBS, 0.00234 µM
# [25] = RPMI 5 mM glucose + 10% dialyzed FBS, 0.00702 µM
# [26] = RPMI 5 mM glucose + 10% dialyzed FBS, 0.0211 µM
# [27] = RPMI 5 mM glucose + 10% dialyzed FBS, 0.0632 µM
# [28] = RPMI 5 mM glucose + 10% dialyzed FBS, 0.19 µM
# [29] = RPMI 5 mM glucose + 10% dialyzed FBS, 0.569 µM
# [30] = RPMI 5 mM glucose + 10% dialyzed FBS, 1.71 µM
# [31] = RPMI 5 mM glucose + 10% dialyzed FBS, 5.12 µM
# [32] = RPMI 5 mM glucose + 10% dialyzed FBS, 15.4 µM
# [33] = RPMI 5 mM glucose + 10% dialyzed FBS, 46.1 µM
SMILES,cell viability [1] [%],cell viability [2] [%],cell viability [3] [%],cell viability [4] [%],cell viability [5] [%],cell viability [6] [%],cell viability [7] [%],cell viability [8] [%],cell viability [9] [%],cell viability [10] [%],cell viability [11] [%],cell viability [12] [%],cell viability [13] [%],cell viability [14] [%],cell viability [15] [%],cell viability [16] [%],cell viability [17] [%],cell viability [18] [%],cell viability [19] [%],cell viability [20] [%],cell viability [21] [%],cell viability [22] [%],cell viability [23] [%],cell viability [24] [%],cell viability [25] [%],cell viability [26] [%],cell viability [27] [%],cell viability [28] [%],cell viability [29] [%],cell viability [30] [%],cell viability [31] [%],cell viability [32] [%],cell viability [33] [%]
O=C1CCc2ccc(OCCCCN3CCN(c4cccc(Cl)c4Cl)CC3)cc2N1,111,121,111,41,113,112,101,89.2,129,119,113,104,111,105,24.5,96.4,101,98.5,23.1,107,95.7,73.1,120,108,113,34.9,105,112,120,106,105,117,74.7
COC1=CC2=C(C=C1OC)[C@H]3[C@@H](CO2)OC4=C(C=CC5=C4\C=C/C(C)(C)O5)C3=O,82.5,97.1,101,96.8,85.3,89,92.7,91,78.9,85.2,3.39,95.1,99.1,107,95.6,78.5,112,85.4,71,24.4,31,3.59,87.7,85.1,92.4,88.9,64.6,79.2,75.4,63,44.8,46.2,3.18
CCCCCCCCc1ccc(CCC(N)(CO)CO)cc1,103,108,108,111,101,120,110,118,97.1,83.2,2.73,99.4,115,107,120,122,111,115,121,93.7,107,2.59,105,116,117,110,104,110,115,109,107,124,3.38
COc1cc2ncnc(Nc3cccc(Br)c3)c2cc1OC,85.1,84.7,94.3,94.7,102,98,114,118,114,103,91.5,113,87.9,102,131,122,119,113,136,121,110,89.9,75,75.2,86,97.4,110,103,120,110,104,96.3,78.6
CCCCCCCCCCCCCCCCCCOP(=O)([O-])OC1CC[N+](C)(C)CC1,82.4,112,97.5,88.7,103,101,109,106,87.4,82.4,73.8,91.9,104,100,95.3,120,108,104,102,98.2,98.4,73.7,101,96.9,98,84.3,99.9,94.9,101,99.9,87.6,82,60.2
COc1ccc2c(c1OC)CN1CCc3cc4c(cc3C1C2)OCO4 (stereo not drawn),85.3,80.1,86.5,104,87.4,64.3,72.8,41.3,13,8.04,7.89,92.5,93.6,87,93.6,84.3,45.6,59.8,20.2,9.42,7.3,6.85,79.6,83.1,96.7,90.8,99,55,56.5,28.8,11.3,8.19,8.01
O=C(CCc1ccc(O)cc1)c1c(O)cc(O)cc1O[C@@H]1O[C@H](CO)[C@@H](O)[C@H](O)[C@H]1O,78.3,99.9,107,107,100,85.8,88.2,102,104,93.1,81.9,80.9,93.9,98.4,97.6,79.6,94.6,89.4,78.6,93.7,92.2,83.4,61.4,102,89.6,104,86.9,89.1,90.5,86.7,89.5,77.4,73.1
CCOC1=CC(=CC=C1C/2=N/[C@@](C)(C3=CC=C(Cl)C=C3)[C@](C)(N2C(=O)N4CCN(CC4)CC(=O)N5CCOCC5)C6=CC=C(Cl)C=C6)C(C)(C)C,82.5,107,108,107,117,106,105,93.5,81.1,66,71,,,,,,,,,,,,112,99.8,108,111,107,109,116,109,90.2,65.2,61.4
